Data from patent US20170044372A1, “CELL TRACKING REAGENTS AND THEIR METHODS OF USE” (LIFE TECHNOLOGIIES CORPORATION, priority 2014, published 2017).

Test system: HeLa cells
Test: CYQUANT Direct cytotoxicity / cell viability assay
Assay type: cell-based
Settings: 96 well plate, labeled at 10 μM for 30 mins at 37° C. in LCIS, assayed on days 1, 2 and 3, compared to DMSO alone
Protocol: FIG. 2: Lack of cytotoxicity of Compound 10, as measured by the CYQUANT Direct (Thermo Fisher Scientific) method. Fluorescence on the Y-axis is proportional to cell population viability. HeLa cells plated in a 96 well plate were labeled with CELLTRACKER Red, Compound 10, or DMSO in Live Cell Imaging Solution (LCIS) at 10 μM concentration for 30 mins at 37° C. The LCIS was then aspirated from cells and complete media added for an overnight incubation. The following day (Day 1) cells were assayed for cytotoxicity using the CYQUANT Direct assay (Thermo Fisher Scientific).
A549, HeLa and U-2 OS cells were plated in a 24-well plate at a concentration of 2000 cells/well. Compound 10 was added at a final concentration of 10 μM in Live Cell Imaging Solution (Life Technologies Corporation, Carlsbad, Calif.) and incubated for 30-60 min at 37° C. Cells were washed in dPBS and the cell media was added. Cells were scanned using the scan routine on an EVOS FL Auto microscope (Thermo Fisher Scientific) for 10% of the middle of the well. The same scan routine was used on Days 2, 3 and 4 of growth. Cell viability was assessed using CYQUANT Direct (Thermo Fisher Scientific) using the same scan routine as described above. The results in HeLa cells can be seen in FIGS. 1 and 2.

For `CN(C)c1ccc2c(-c3ccc(C(=O)ON4C(=O)CCC4=O)cc3C(=O)O)c3ccc(=[N+](C)C)cc-3oc2c1` [Compound 10], the “cytotoxicity as measured by the CYQUANT Direct method (fluorescence proportional to cell population viability)” value was “no cytotoxicity”.
